Patent US20070281046A1, “Method for removing organic contaminants from Chinese herb medicines” (Committee on Chinese Medicine and Pharmacy, Department of …, priority 2006, published 2007)
Marks after values point to notes of the source that are not given here.

Experiments:
[1] = Degradation of nine organochlorine pesticides by gamma irradiation in samples of P. quinquefolium (GC analysis); format: physicochemical; conditions: for remaining concentration of organochlorine pesticides in samples: P. quinquefolium samples, mean of three; for proportion of pesticide degraded: gamma irradiation of P. quinquefolium samples, dose not stated in the sentence (matches 25 kGy of Table 1)
Description: The nine organochlorine pesticides that included Aldrin, Lindane, Heptachlor, Endosulfan-1, Endosulfan-2, o,p′-DDD), p,p′-DDD, p,p′-DDE, and p,p′-DDT were simultaneously prepared in a n-hexane solution. Subsequently, the n-hexane solution that contained the aforesaid organochlorine pesticides was evenly sprayed into samples of P. quinquefolium; the concentration of each of the nine organochlorine pesticides contained in the samples was approximately 0.5 ppm. The samples were cut into pieces with scissors, and then divided into separate packs that weighed 10 g, respectively; the packs were subjected to gamma irradiation of different dosages ranging from 0, 5, 10, 15, 20, and 25 kGy, and followed by the analysis of concentration of the aforesaid organochlorine pesticides. […] Solution was extracted from the samples by using 70% aqueous acetone, and then the extracted solution was subjected to filtration, a decrease in pressure, and condensation in order to remove acetone, followed by the addition of hydrochloric acid and n-hexane to bring the extracted solution to 100 ml, so that the organochlorine pesticides were distributed to the organic layer. Consequently, magnesium silicate was added into the resulted solution in order to depigment and purify it, and once the solution has undergone a decrease in pressure and condensation again for drying, it was brought to 5 ml by adding n-hexane solution to prepare it for gas chromatography (GC) analysis. After undergoing centrifugation, 2 μl of the resulted solution was taken for GC analysis to find out the respective concentration of each of the aforesaid organochlorine pesticides remaining in the samples after receiving various dosages of gamma irradiation.

[2] = Concentration of marker components (ginsenosides) in P. quinquefolium samples after gamma irradiation (HPLC); format: physicochemical; conditions: for concentration of marker components of P. quinquefolium (ginsenoside): mean ± SD, three repeats; for effect of gamma irradiation on concentration of marker components: 10 kGy and 15 kGy gamma irradiation, P. quinquefolium samples
Description: Samples of P. quinquefolium that have respectively received gamma irradiation in dosages of 0, 10, 15, and 20 kGy were analyzed to find out the concentration of marker components therein, with the samples that have not received gamma irradiation as the control group. To extract marker components from the samples for analysis, 10 g of the samples were taken and prepared in 50 ml of 70% aqueous methanol solution, and heated in a convection heater at 60° C. for 15 minutes, followed by centrifugation in order to obtain the extract solution. Subsequently, the residual of the samples were subjected to the above-mentioned procedure again, and the extracted solution from the two rounds of procedures were mixed together and filtered, followed by the addition of 70% aqueous methanol solution to bring the volume up to 100 ml; the resulted solution was then stored at −20° C. and analyzed within 3 days. Before carrying out the analysis of ingredients, an adequate amount of the resulted solution was underwent filtration through a 0.22 μm pore size membrane, and then 20 μl of the solution was injected into a high performance liquid chromatographer for analysis (HPLC, Waters model 2695) each time; the analyses were carried out in combination with UV light—Visible light sensor of Waters model 2487, and a silicon-based reverse phase C-18 column (Cosmosil 5C18-MS-II, 5 μm, 4.6×250 mm, Nacalai Tesque, Inc., Kyoto, Japan) was used for analyzing the marker components of P. quinquefolium in the solution. The marker components of P. quinquefolium tested in the experiment included ginsenoside Rb1, ginsenoside Rg1, ginsenoside Rc, ginsenoside Rd, and ginsenoside Re; the detection wavelength of UV light was 203 ηm. The solution of 15% aqueous phosphoric acid (H3PO4)—acetonitrile (CH3CN) (81:19 to 60:40) was used as the moving phase, and the moving phase was analyzed at 25° C. and 1.0 ml/min of flow velocity after being filtered with a 0.45 μm filtration membrane, so as to measure the concentration of the marker components in samples of P. quinquefolium that received various dosages of gamma irradiation.

[3] = 0 kGy gamma irradiation (control group)

Compound | remaining concentration of organochlorine pesticides in samples [1, 3] | remaining concentration of organochlorine pesticides in samples ([1]; 5 kGy gamma irradiation) [ppm] | remaining concentration of organochlorine pesticides in samples ([1]; 10 kGy gamma irradiation) [ppm] | remaining concentration of organochlorine pesticides in samples ([1]; 15 kGy gamma irradiation) [ppm] | remaining concentration of organochlorine pesticides in samples ([1]; 20 kGy gamma irradiation) [ppm] | remaining concentration of organochlorine pesticides in samples ([1]; 25 kGy gamma irradiation) [ppm] | proportion of pesticide degraded [1] [%] | concentration of marker components of P. quinquefolium (ginsenoside) [2, 3] | effect of gamma irradiation on concentration of marker components [2] | concentration of marker components of P. quinquefolium (ginsenoside) ([2]; 10 kGy gamma irradiation) [mg/g] | concentration of marker components of P. quinquefolium (ginsenoside) ([2]; 15 kGy gamma irradiation) [mg/g] | concentration of marker components of P. quinquefolium (ginsenoside) ([2]; 20 kGy gamma irradiation) [mg/g]
ClC1=C(Cl)C2(Cl)C3C4C=CC(C4)C3C1(Cl)C2(Cl)Cl (stereo not drawn) [Aldrin] | 0.532^a) ppm | 0.376 | 0.279 | 0.218 | 0.168 | 0.123 |  |  |  |  |  | 
O=S1OC[C@@H]2[C@H](CO1)[C@@]1(Cl)C(Cl)=C(Cl)[C@]2(Cl)C1(Cl)Cl (stereo partly drawn) [Endosulfan-1] | 0.519 ppm | 0.392 | 0.311 | 0.251 | 0.192 | 0.140 |  |  |  |  |  | 
O=S1OC[C@@H]2[C@H](CO1)[C@]1(Cl)C(Cl)=C(Cl)[C@]2(Cl)C1(Cl)Cl (stereo partly drawn) [Endosulfan-2] | 0.515 ppm | 0.359 | 0.263 | 0.198 | 0.144 | 0.093 |  |  |  |  |  | 
ClC1=C(Cl)C2(Cl)C3C(Cl)C=CC3C1(Cl)C2(Cl)Cl (stereo not drawn) [Heptachlor] | 0.532 ppm | 0.421 | 0.319 | 0.254 | 0.195 | 0.142 |  |  |  |  |  | 
Cl[C@H]1[C@H](Cl)[C@@H](Cl)[C@@H](Cl)[C@H](Cl)[C@H]1Cl [Lindane] | 0.549 ppm | 0.383 | 0.278 | 0.206 | 0.147 | 0.089 | 84 |  |  |  |  | 
CC(C)=CCC[C@](C)(O[C@@H]1O[C@H](CO[C@@H]2O[C@H](CO)[C@@H](O)[C@H](O)[C@H]2O)[C@@H](O)[C@H](O)[C@H]1O)[C@H]1CC[C@]2(C)[C@@H]1[C@H](O)C[C@@H]1[C@@]3(C)CC[C@H](O[C@@H]4O[C@H](CO)[C@@H](O)[C@H](O)[C@H]4O[C@@H]4O[C@H](CO)[C@@H](O)[C@H](O)[C@H]4O)C(C)(C)[C@@H]3CC[C@]12C [Rb1, ginsenoside Rb1] |  |  |  |  |  |  |  | 31.37 ± 0.15^a) mg/g | would not affect | 31.01 ± 0.11 | 30.59 ± 0.63 | 29.39 ± 0.36
CC(C)=CCC[C@](C)(O[C@@H]1O[C@H](CO[C@@H]2O[C@@H](CO)[C@H](O)[C@H]2O)[C@@H](O)[C@H](O)[C@H]1O)[C@H]1CC[C@]2(C)[C@@H]1[C@H](O)C[C@@H]1[C@@]3(C)CC[C@H](O[C@@H]4O[C@H](CO)[C@@H](O)[C@H](O)[C@H]4O[C@@H]4O[C@H](CO)[C@@H](O)[C@H](O)[C@H]4O)C(C)(C)[C@@H]3CC[C@]12C [Rc, ginsenoside Rc] |  |  |  |  |  |  |  | 16.12 ± 0.47 mg/g | would not affect | 15.91 ± 0.43 | 15.08 ± 0.27 | 14.46 ± 0.28
CC(C)=CCC[C@](C)(O[C@@H]1O[C@H](CO)[C@@H](O)[C@H](O)[C@H]1O)[C@H]1CC[C@]2(C)[C@@H]1[C@H](O)C[C@@H]1[C@@]3(C)CC[C@H](O[C@@H]4O[C@H](CO)[C@@H](O)[C@H](O)[C@H]4O[C@@H]4O[C@H](CO)[C@@H](O)[C@H](O)[C@H]4O)C(C)(C)[C@@H]3CC[C@]12C [Rd, ginsenoside Rd] |  |  |  |  |  |  |  | 9.02 ± 0.32 mg/g | would not affect | 8.77 ± 0.15 | 8.44 ± 0.25 | 8.20 ± 0.17
CC(C)=CCC[C@](C)(O[C@@H]1O[C@H](CO)[C@@H](O)[C@H](O)[C@H]1O)[C@H]1CC[C@]2(C)[C@@H]1[C@H](O)C[C@@H]1[C@@]3(C)CC[C@H](O)C(C)(C)[C@@H]3[C@@H](O[C@@H]3O[C@H](CO)[C@@H](O)[C@H](O)[C@H]3O[C@@H]3O[C@@H](C)[C@H](O)[C@@H](O)[C@H]3O)C[C@]12C [Re, ginsenoside Re] |  |  |  |  |  |  |  | 15.98 ± 0.50 mg/g | would not affect | 15.79 ± 0.21 | 15.04 ± 0.33 | 14.53 ± 0.14
CC(C)=CCC[C@](C)(O[C@@H]1O[C@H](CO)[C@@H](O)[C@H](O)[C@H]1O)[C@H]1CC[C@]2(C)[C@@H]1[C@H](O)C[C@@H]1[C@@]3(C)CC[C@H](O)C(C)(C)[C@@H]3[C@@H](O[C@@H]3O[C@H](CO)[C@@H](O)[C@H](O)[C@H]3O)C[C@]12C [Rg1, ginsenoside Rg1] |  |  |  |  |  |  |  | 1.56 ± 0.09 mg/g | would not affect | 1.56 ± 0.06 | 1.47 ± 0.03 | 1.43 ± 0.02
Clc1ccc(C(c2ccccc2Cl)C(Cl)Cl)cc1 (stereo not drawn) [o,p′-DDD] | 0.476 ppm | 0.337 | 0.250 | 0.196 | 0.155 | 0.119 |  |  |  |  |  | 
Clc1ccc(C(c2ccc(Cl)cc2)C(Cl)Cl)cc1 [p,p′-DDD] | 0.502 ppm | 0.370 | 0.282 | 0.227 | 0.179 | 0.147 |  |  |  |  |  | 
ClC(Cl)=C(c1ccc(Cl)cc1)c1ccc(Cl)cc1 [p,p′-DDE] | 0.544 ppm | 0.404 | 0.313 | 0.249 | 0.195 | 0.145 |  |  |  |  |  | 
Clc1ccc(C(c2ccc(Cl)cc2)C(Cl)(Cl)Cl)cc1 [p,p′-DDT] | 0.520 ppm | 0.344 | 0.242 | 0.178 | 0.127 | 0.082 | 84 |  |  |  |  | 
